# Laboratory results as given in patent EP2582674B1 (Cymabay Therapeutics, Inc., priority 2010, dated 2011).
# Target: T1, human GPR120 (Homo sapiens, UniProt Q5NUL3)
# T1 construct: host or cells: HEK293 cells co-expressing Gqi5
# T1 sequence (Q5NUL3 1-361): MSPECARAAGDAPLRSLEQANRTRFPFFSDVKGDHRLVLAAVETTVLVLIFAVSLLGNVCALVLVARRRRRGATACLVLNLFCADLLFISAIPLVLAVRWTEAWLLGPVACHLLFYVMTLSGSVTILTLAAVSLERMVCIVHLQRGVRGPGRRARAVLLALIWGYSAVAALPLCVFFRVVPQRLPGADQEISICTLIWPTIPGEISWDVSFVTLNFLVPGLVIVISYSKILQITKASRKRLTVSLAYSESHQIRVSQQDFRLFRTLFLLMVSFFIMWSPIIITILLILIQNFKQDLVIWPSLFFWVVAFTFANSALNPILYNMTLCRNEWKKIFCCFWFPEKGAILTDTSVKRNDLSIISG
# Test: Intracellular Ca2+ assay in human GPR120 stable cell line (FLIPR Calcium 4 dye, Flexstation)
# Assay type: cell-based
# Settings: % activity at 2.5 µM compared to the maximal activity of the compound of Example 25 at 2.5 µM (=100%); HEK293 cells co-expressing Gqi5; read-out: % Activity (Ex. 25 Reference Compound)
# Protocol: Human GPR120 stable cell line was purchased from Multispan Inc (26219 Eden Landing Road, Hayward, CA94545). This GPR120 cell line was generated in HEK293 cells co-expressing Gqi5. In this cell line, the Flag epitope tag (DYKDDDDK) was fused to the amino terminus of human GPR120 protein.
# The concentration of intracellular Ca^2+ was measured as described below. Human GPR120 cells were plated in 96 well plates (Poly-D-Lysine coated black/clear Plate, Greiner Bio-One) at 70,000 cells per well and cultured overnight in conditions of 37°C and 5% CO2. A Ca^2+ assay dye stock solution was prepared by adding 10 mL of assay buffer (HBSS/20mM HEPES, pH 7.4) to FLIPR Calcium 4 Assay Bulk Kit (Molecular Devices). The 10 mL of Ca^2+ assay dye solution was prepared by further diluting 0.5 mL of Ca^2+ assay dye stock solution with 10 mL of assay buffer. The medium of the cells was removed and immediately 100 µL of the Ca^2+ assay dye solution was dispensed into each well followed by incubation at 37°C and 5% CO2 for 50 minutes to incorporate the Ca^2+ dye into the cells. The cell plate was then placed in the Flexstation (Molecular Devices) for 20 minutes at 37°C. Compounds were dissolved in 100% DMSO and diluted to desired concentrations with assay buffer and placed in the Flexstation simultaneously with the cell plate for 20 minute incubation at 37°C prior to reading. Fluorescence intensity was measured immediately following compound addition (25 µL/well) on the Flexstation at an excitation wavelength of 485 nm and an emission wavelength of 525 with 515 nm auto cutoff. The resulting increase in fluorescence intensities corresponds to increases in intracellular Ca^2+ levels.
# Compounds were dissolved in 100% DMSO to a concentration of 20 mM to provide stock solutions. To determine activity against human GPR120, compounds were added with human GPR120 stably expressing cells (described above), at eight desired concentrations ranging from 0.00001 to 20 µM, in 96 well plates and fluorescence intensities were measured for 90 seconds with 2-second intervals. An EC50 value (concentration of the GPR120 agonist where 50% of the agonist's maximal activity is observed) was calculated using the changes (Max-Min) of fluorescence intensity.
# To determine percent activity for a tested compound, the fluorescence intensity value obtained at a particular concentration were compared to the maximal fluorescence intensity value obtained for reference compound GW9508 (4-[[(3-phenoxyphenyl)methyl]amino]benzene propanoic acid; British Journal of Pharmacology 2006 148, 619-628) or the compound of Example 25. When GW9508 was used as the reference compound, the maximal activity of GW9508 at 6.7µM was designated as 100% activity. When the compound of Example 25 was used as the reference compound, the maximal activity of the compound of Example 25 at 2.5 µM was designated as 100% activity. Typically, the GW9508 activity reached a maximum at a concentration of approximately 6.7 µM and typically the compound of Example 25 reached a maximum activity at approximately 2.5µM. […]
row,Compound,activity at 2.5 µM [%]
1,"CC1(C)Cc2cc(F)cc(CCc3ccc(OCC(=O)O)cc3)c2O1 [Example 70, 2-(4-(2-(5-fluoro-2,2-dimethyl-2,3-dihydrobenzofuran-7-yl)ethyl)phenoxy)acetic acid]",118

# Same assay, conditions: HEK293, % activity at 2.5 µM compared to the maximal activity of the compound of Example 25 at 2.5 µM (=100%); HEK293 cells co-expressing Gqi5; read-out: % Activity (Ex. 25 Reference Compound)
row,Compound,activity at 2.5 µM [%]
1,"CC1(C)Cc2cc(Cl)cc(COc3c(F)cc(C4CC4CC(=O)O)cc3F)c2O1 (centres unmarked) [Example 41, 2-(2-(4-((5-chloro-2,2-dimethyl-2,3-dihydrobenzofuran-7-yl)methoxy)-3,5-difluorophenyl)cyclopropyl)acetic acid]",116
2,"CC(Cc1cc(F)c(OCc2c(F)c(F)cc3c2OC(C)(C)C3)c(F)c1)C(=O)O (centres unmarked) [Example 42, 3-(4-((5,6-difluoro-2,2-dimethyl-2,3-dihydrobenzofuran-7-yl)methoxy)-3,5-difluorophenyl)-2-methylpropanoic acid]",141
3,"CC(Cc1ccc(COc2cccc3c2OC(C)(C)C3)c(F)c1)C(=O)O (centres unmarked) [Example 44, 3-(4-(((2,2-dimethyl-2,3-dihydrobenzofuran-7-yl)oxy)methyl)-3-fluorophenyl)-2-methylpropanoic acid]",157
4,"CC(Cc1ccc(OCc2cc(F)cc3c2OCOC3)cc1)C(=O)O (centres unmarked) [Example 45, 3-(4-((6-fluoro-4H-benzo[d][1,3]dioxin-8-yl)methoxy)phenyl)-2-methylpropanoic acid]",79.6
5,"Cc1cc(OCc2cc(F)cc3c2OC(C)(C)C3)ccc1CCC(=O)O [Example 46, 3-(4-((5-fluoro-2,2-dimethyl-2,3-dihydrobenzofuran-7-yl)methoxy)-2-methylphenyl)propanoic acid]",114
6,"CC1(C)Cc2cc(F)cc(COc3ccc(CCC(=O)O)c(Cl)c3)c2O1 [Example 47, 3-(2-chloro-4-((5-fluoro-2,2-dimethyl-2,3-dihydrobenzofuran-7-yl)methoxy)phenyl)propanoic acid]",111
7,"CC1(C)Cc2cc(Cl)cc(COc3ccc(CCC(=O)O)c(F)c3)c2O1 [Example 53, 3-(4-((5-chloro-2,2-dimethyl-2,3-dihydrobenzofuran-7-yl)methoxy)-2-fluorophenyl)-propanoic acid]",143
8,"CC1(C)Cc2cc(Cl)cc(COc3cc(F)c(CCC(=O)O)c(F)c3)c2O1 [Example 54, 3-(4-((5-chloro-2,2-dimethyl-2,3-dihydrobenzofuran-7-yl)methoxy)-2,6-difluorophenyl)propanoic acid]",139
9,"COc1cc(CCC(=O)O)c(Br)cc1OCc1cc(F)cc2c1OC(C)(C)C2 [Example 56, 3-(2-bromo-4-((5-fluoro-2,2-dimethyl-2,3-dihydrobenzofuran-7-yl)methoxy)-5-methoxyphenyl)propanoic acid]",109
10,"CC1(C)Cc2cc(Cl)cc(COc3ccc(SCC(=O)O)cc3)c2O1 [Example 59, 2-((4-((5-chloro-2,2-dimethyl-2,3-dihydrobenzofuran-7-yl)methoxy)phenyl)thio)-acetic acid]",118
11,"CC1(C)Cc2cc(F)cc(COc3ccc(CCC(=O)O)c4c3CCC4)c2O1 [Example 63, 3-(7-((5-fluoro-2,2-dimethyl-2,3-dihydrobenzofuran-7-yl)methoxy)-2,3-dihydro-1H-inden-4-yl)propanoic acid]",95
12,"CC(Cc1ccc(NCc2cc(F)cc3c2OC(C)(C)C3)cc1)C(=O)O (centres unmarked) [Example 67, 3-(4-(((5-fluoro-2,2-dimethyl-2,3-dihydrobenzofuran-7-yl)methyl)amino)phenyl)-2-methylpropanoic acid]",142
13,"CC(Cc1ccc(NC(=O)c2cc(F)cc3c2OC(C)(C)C3)cc1)C(=O)O (centres unmarked) [Example 68, 3-(4-(5-fluoro-2,2-dimethyl-2,3-dihydrobenzofuran-7-carboxamido)phenyl)-2-methylpropanoic acid]",69
14,"CCOC(Cc1cc(F)c(OCc2cc(F)cc3c2OC(C)(C)C3)c(F)c1)C(=O)O (centres unmarked) [Example 69, 3-(3,5-difluoro-4-((5-fluoro-2,2-dimethyl-2,3-dihydrobenzofuran-7-yl)methoxy)phenyl)-2-ethoxypropanoic acid]",78.5

# Same assay, conditions: HEK293, % activity at 5 µM compared to the maximal activity of GW9508 at 6.7 µM (=100%); HEK293 cells co-expressing Gqi5; read-out: %Activity (GW9508 Reference Compound)
row,Compound,activity at 5 µM [%]
1,"CC(Cc1ccc(OCc2ccc(F)c3c2OC(C)(C)C3)c(F)c1)C(=O)O (centres unmarked) [Example 29, 3-(3-fluoro-4-((4-fluoro-2,2-dimethyl-2,3-dihydrobenzofuran-7-yl)methoxy)phenyl)-2-methylpropanoic acid]",134
2,"CC(Cc1ccc(OCc2ccc(F)c3c2OC(C)(C)C3)cc1)C(=O)O (centres unmarked) [Example 30, 3-(4-((4-fluoro-2,2-dimethyl-2,3-dihydrobenzofuran-7-yl)methoxy)phenyl)-2-methylpropanoic acid]",177
3,"CC1(C)Cc2c(C(F)(F)F)ccc(COc3c(F)cc(C4CC4C(=O)O)cc3F)c2O1 (centres unmarked) [Example 31, 2-(4-((2,2-dimethyl-4-(trifluoromethyl)-2,3-dihydrobenzofuran-7-yl)methoxy)-3,5-difluorophenyl)cyclopropanecarboxylic acid]",150
4,"CC(Cc1cc(F)c(OCc2ccc(C(F)(F)F)c3c2OC(C)(C)C3)c(F)c1)C(=O)O (centres unmarked) [Example 32, 3-(4-((2,2-dimethyl-4-(trifluoromethyl)-2,3-dihydrobenzofuran-7-yl)methoxy)-3,5-difluorophenyl)-2-methylpropanoic acid]",143
5,"CC(Cc1ccc(OCc2ccc(C(F)(F)F)c3c2OC(C)(C)C3)c(F)c1)C(=O)O (centres unmarked) [Example 33, 3-(4-((2,2-dimethyl-4-(trifluoromethyl)-2,3-dihydrobenzofuran-7-yl)methoxy)-3-fluorophenyl)-2-methylpropanoic acid]",143
6,"CC(Cc1ccc(OCc2ccc(C(F)(F)F)c3c2OC(C)(C)C3)cc1)C(=O)O (centres unmarked) [Example 34, 3-(4-((2,2-dimethyl-4-(trifluoromethyl)-2,3-dihydrobenzofuran-7-yl)methoxy)phenyl)-2-methylpropanoic acid]",118
7,"CC1(C)Cc2cc(F)cc(COc3ccc4c(c3)CCC4CC(=O)O)c2O1 (centres unmarked) [Example 37, 2-(5-((5-fluoro-2,2-dimethyl-2,3-dihydrobenzofuran-7-yl)methoxy)-2,3-dihydro-1H-inden-1-yl)acetic acid]",125
8,"CC(Cc1cc(F)c(OCc2cc(Cl)cc3c2OC(C)(C)C3)c(F)c1)C(=O)O (centres unmarked) [Example 38, 3-(4-((5-chloro-2,2-dimethyl-2,3-dihydrobenzofuran-7-yl)methoxy)-3,5-difluorophenyl)-2-methylpropanoic acid]",83.4
9,"CC(Cc1cc(F)c(OCc2cccc3c2OC(C)C3C)c(F)c1)C(=O)O (centres unmarked) [Example 40, 3-(4-((2,3-dimethyl-2,3-dihydrobenzofuran-7-yl)methoxy)-3,5-difluorophenyl)-2-methylpropanoic acid]",95.3

# Same assay, conditions: eight concentrations from 0.00001 to 20 µM; changes (Max-Min) of fluorescence intensity
row,Compound,EC50 [µM]
1,"CC(Cc1ccc(OCc2ccc(C(F)(F)F)c3c2OC(C)(C)C3)cc1)C(=O)O (centres unmarked) [Example 34, 3-(4-((2,2-dimethyl-4-(trifluoromethyl)-2,3-dihydrobenzofuran-7-yl)methoxy)phenyl)-2-methylpropanoic acid]",> 10
2,"CC(Cc1cc(F)c(OCc2c(F)c(F)cc3c2OC(C)(C)C3)c(F)c1)C(=O)O (centres unmarked) [Example 42, 3-(4-((5,6-difluoro-2,2-dimethyl-2,3-dihydrobenzofuran-7-yl)methoxy)-3,5-difluorophenyl)-2-methylpropanoic acid]",1 to 10
3,"CC(Cc1ccc(OCc2c(F)c(F)cc3c2OC(C)(C)C3)cc1)C(=O)O (centres unmarked) [Example 43, 3-(4-((5,6-difluoro-2,2-dimethyl-2,3-dihydrobenzofuran-7-yl)methoxy)phenyl)-2-methylpropanoic acid]",> 10
4,"CC(Cc1ccc(COc2cccc3c2OC(C)(C)C3)c(F)c1)C(=O)O (centres unmarked) [Example 44, 3-(4-(((2,2-dimethyl-2,3-dihydrobenzofuran-7-yl)oxy)methyl)-3-fluorophenyl)-2-methylpropanoic acid]",1 to 10
5,"CC(Cc1ccc(OCc2cc(F)cc3c2OCOC3)cc1)C(=O)O (centres unmarked) [Example 45, 3-(4-((6-fluoro-4H-benzo[d][1,3]dioxin-8-yl)methoxy)phenyl)-2-methylpropanoic acid]",> 10
